Molecules are shown by their SMILES.

Data on one compound can be found in patent US20060228297A1, “Thorium-227 for use in radiotherapy of soft tissue disease” (priority 2003, published 2006).

Data set [1] relates to patients with breast or prostate cancer. Description: Phase I study of ^223Ra, single doses, neutrophil cell fractions (Example 8). It is filed as in vivo, humans. Particulars: for Days to nadir (neutrophil cell fraction) / ˜% of baseline at nadir (neutrophil cell fraction): humans. The source says:
In a phase I study in patients with breast or prostate cancer, dose levels of 37, 74, 130, 170 and 200 kBq/kg of ^223Ra were given as single doses. Neutrophil cell fractions were monitored as a sensitive measure of haematological toxicity.

For data set [2] the following is noted: then concentrated in the skeleton or excreted via intestinal and renal routes; cited from earlier work.

In the case of `[223Ra]` [^223Ra, radium-223], in data set [1] (human subjects), the “Dose that can be administered and tolerated” value was “at least 200 kBq/kg”. The “Days to nadir (neutrophil cell fraction)” value is 14 days in data set [1] (37 kBq/kg single dose); 14 days in data set [1] (74 kBq/kg single dose); 28 days in data set [1] (130 kBq/kg single dose); 21 days in data set [1] (170 kBq/kg single dose); 21 days in data set [1] (200 kBq/kg single dose). The “˜% of baseline at nadir (neutrophil cell fraction)” value is about 60% in data set [1] (37 kBq/kg single dose); about 60% in data set [1] (74 kBq/kg single dose); about 50% in data set [1] (130 kBq/kg single dose); about 40% in data set [1] (170 kBq/kg single dose); about 30% in data set [1] (200 kBq/kg single dose). Also, in data set [2], the Blood clearance result is recorded as “very rapidly”.
